Source: ChEMBL document CHEMBL1158224, “Bioactive ent-kaurene diterpenoids from Annona senegalensis” (J Nat Prod, 1996)
≈ marks a conversion by molar mass, not a printed value.

Columns and labels:
[1] = tested on: MCF7; assay: Cytotoxicity against human MCF7 cells after 7 days by MTT assay; assay type: functional; details: MCF7, 168 h, read-out: ED50 (the source's name)
[2] = tested on: PC-3; assay: Cytotoxicity against human PC3 cells after 7 days by MTT assay; assay type: functional; details: PC-3, 168 h, read-out: ED50 (the source's name)
[3] = tested on: HT-29; assay: Cytotoxicity against human HT29 cells after 7 days by MTT assay; assay type: functional; details: HT-29, 168 h, read-out: ED50 (the source's name)
[4] = tested on: A498; assay: Cytotoxicity against human A498 cells after 7 days by MTT assay; assay type: functional; details: A498, 168 h, read-out: ED50 (the source's name)
[5] = tested on: A549; assay: Cytotoxicity against human A549 cells after 7 days by MTT assay; assay type: functional; details: A549, 168 h, read-out: ED50 (the source's name)
[6] = tested on: MIA PaCa-2; assay: Cytotoxicity against human MIAPaCa2 cells after 7 days by MTT assay; assay type: functional; details: MIA PaCa-2, 168 h, read-out: ED50 (the source's name)
[7] = Toxicity against brine shrimp; assay type: organism-based; details: artemia, in vivo

| SMILES | EC50 [1] [µg/mL] | EC50 [2] [µg/mL] | EC50 [3] [µg/mL] | EC50 [4] [µg/mL] | EC50 [5] [µg/mL] | EC50 [6] [µg/mL] | LC50 [7] [µg/mL] |
| --- | --- | --- | --- | --- | --- | --- | --- |
| CC(=O)OC[C@@]1(OC(C)=O)C[C@@]23CC[C@H]4[C@@](C)(CCC[C@@]4(C)C(=O)O)[C@H]2CC[C@@H]1C3 | > 20 | 17.7 (≈ 42.1 µM) |  |  |  |  |  |
| COc1cccc2c1C(=O)c1c(O)c3c(c(O)c1C2=O)C[C@@](O)(C(=O)CO)C[C@@H]3O[C@H]1C[C@H](N)[C@H](O)[C@H](C)O1 [DOXORUBICIN] | 0.152 (≈ 0.28 µM) | 0.0223 (≈ 0.041 µM) | 0.0437 (≈ 0.0804 µM) | 0.01 (≈ 0.0184 µM) | 0.00506 (≈ 0.00931 µM) | 0.00379 (≈ 0.00697 µM) |  |
| C=C1C[C@@]23CC[C@H]4[C@@](C)(CCC[C@@]4(C)C(=O)O)[C@@H]2CC[C@@H]1C3 [KAURENOIC ACID] | 1 (≈ 3.31 µM) | 15.2 (≈ 50.2 µM) | 31.4 (≈ 104 µM) | 48 (≈ 159 µM) | 13.6 (≈ 44.9 µM) | 22.1 (≈ 73.2 µM) | 16 (≈ 52.9 µM) |
| COC(=O)[C@]1(C)CCC[C@@]2(C)[C@H]3CC[C@@H]4C[C@@]3(CC[C@@H]21)C[C@@H]4C(=O)O | > 20 | 17.4 (≈ 49.9 µM) |  |  |  |  |  |
